Data taken from patent publication US7750031B2, “Caffeic acid derivative and composition containing the same” (Thefaceshop Korea Co., Ltd., priority 2007, dated 2010).

Assay: solubility measurement in purified water and ethanol
Conditions: for density up to which dissolved: 25° C.

- solubility (ethanol (25° C.), density 1 mg/mL): dissolved
- solubility (ethanol (25° C.), density 10 mg/mL): dissolved
- solubility (ethanol (25° C.), density 100 mg/mL): not dissolved
- density up to which dissolved (ethanol): ≥ 10 mg/mL
- solubility (purified water (25° C.), density 1 mg/mL): not dissolved
- solubility (purified water (25° C.), density 10 mg/mL): not dissolved
- solubility (purified water (25° C.), density 100 mg/mL): not dissolved
- density up to which dissolved (purified water): not dissolved
SMILES: O=C(O)/C=C/c1ccc(O)c(O)c1 [caffeic acid]
